From patent publication US10959966B2, “Compositions and methods for modulating HEXM1 expression” (CASE WESTERN RESERVE UNIVERSITY, priority 2014, dated 2021)

How the values were obtained:
Type in all cases: cell-based
[1] = system: HEXIM1 targets in MCF7 cells; experiment: Western blot of HEXIM1 targets in MCF7 cells; conditions: 5 mM HMBA or 50 uM 4a1, 18 h, relative to GAPDH
Procedure: FIG. 10 illustrates a Western blot of MCF7 cells treated with vehicle, 5 mM HMBA, or 50 uM 4a1 for 18 h, and processes for analyses of HEXIM1 targets relative to GAPDH.
(§1) Cell lysates were analyzed by western blot as previously described. Anti-HEXIM1 was generated in the Montano laboratory. Primary antibodies against p21 (C-19; cat# sc-397), cyclin D1 (HD11; cat# sc-246) and myc (9E10; cat# sc-40) were obtained from Santa Cruz Biotechnology. Anti-GAPDH was obtained from Millipore. Anti-HIF-1α was obtained from Oxy-cell, Bioresearch).
To assess the clinical potential of HMBA and 4a1 we need to determine to what extent the targets of HMBA and 4a1 overlap with that of HEXIM1. We focused on direct targets of HEXIM1 that we have identified.

[2] = system: p21 expression in breast cancer MCF7 cells; experiment: p21 expression by western blot, MCF7 cells; conditions: 5 mM HMBA or 50 μM 4a1, 18 hours
Procedure: FIGS. 7(A-B) illustrate Western blots showing (A) MCF7 (control siRNA or HEXIM1 siRNA) and (B) LNCaP (control shRNA or HEXIM1 shRNA) cells treated with vehicle (DMSO), 5 mM HMBA, or 50 μM 4a1 for 18 hours.
as §1
HMBA was investigated in a Phase II clinical trial due to its potent anti-cancer and cell differentiation activities. Moreover, the roles of HMBA, and potentially 4a1, as differentiating factors are advantageous for their therapeutic use when compared to cytotoxic agents. […] We also examined the ability of 4a1 to induce differentiation and the relative role of HEXIM1.

[3] = system: tamoxifen resistant breast cancer line (MCF7/TOTR); experiment: MTT proliferation assay, sensitivity to trans-hydroxytamoxifen; conditions: 7 days, 5 mM HMBA or 50 μM 4a1
Procedure: (§2) FIGS. 9(A-B) illustrate a Western blot and plots showing HEXIM1 expression in MCF7 and MCF7(TOTR) cells in the presence of vehicle (DMSO), 5 mM HMBA or 50 μM 4a1.
(§3) MCF7, MDA-MB-231, and LNCaP cells were obtained from the American Tissue Culture Collection, and were maintained as previously described. Construction of expression vectors for control miRNA or HEXIM1 miRNAs were described previously. MCF7 or LNCaP cells were transfected with expression vectors containing either the HEXIM1 miRNA insert or a control miRNA insert as previously described. Following blasticidin selection, cells expressing the highest level of GFP were flow-sorted and expanded. […]
MCF7 cells were plated onto 96 well plates and treated with 17β-estradiol±trans-hydroxytamoxifen in the presence of DMSO (vehicle), HMBA or 4a1 for 7 days. Cell proliferation was assessed using the MTT based Cell Growth Determination Kit from Sigma-Aldrich according to the manufacturer's protocol.
(§4) We have reported that HEXIM1 is required for the ability of antiestrogens to inhibit the activity of the Estrogen Receptor, that loss of HEXIM1 results in agonistic activity of tamoxifen, and that recurrence after tamoxifen therapy can be correlated with loss of HEXIM1 expression in human breast tissue samples. Thus we determined if HMBA and 4a1 can enhance sensitivity to tamoxifen of a tamoxifen resistant breast cancer line (MCF7/TOTR). […]

[4] = system: recruitment of CDK9 to HEXIM1 gene in MCF7 cells; experiment: ChIP assay, CDK9 recruitment to HEXIM1 gene, MCF7 cells; conditions: 5 mM HMBA or 50 μM 4a1, 90 minutes
Procedure: (§5) FIGS. 6(A-B) illustrate graphs showing HEXIM1 graphs showing HMBA and 4a1 induced recruitment of CDK9 to HEXIM1 promoter in MCF7 and LNCaP cells treated with 5 mM HMBA or 50 μM 4a1 for 90 minutes.
(§6) ChIP assays were carried out as previously described. Anti-CDK9 antibody (D-7; cat# sc-13130) was obtained from Santa Cruz Biotechnology.
(§7) The induction of HEXIM1 by HMBA appears to involve the release of free P-TEFb from 7SK snRNP, and recruitment of P-TEFb to HEXIM1 gene. P-TEFb is a heterodimer between the cyclin-dependent kinase 9 (Cdk9) and its regulatory subunit Cyclin T1 (CycT1). We thus determined the regulation of the recruitment of CDK9 to the HEXIM1 coding sequence by HMBA and 4a1.

[5] = system: recruitment of CDK9 to HEXIM1 gene in LNCaP cells; experiment: ChIP assay, CDK9 recruitment to HEXIM1 gene, LNCaP cells; conditions: 5 mM HMBA or 50 μM 4a1, 90 minutes
Procedure: as §5, §6, §7

[6] = system: HEXIM1 expression in MCF7/TOTR cells; experiment: HEXIM1 expression in tamoxifen resistant MCF7/TOTR cells; conditions: 5 mM HMBA or 50 μM 4a1
Procedure: as §2
as §3, with “expanded. MDA-MB-231 cells were transfected with control or expression vector for Flag-tagged HEXIM1 as previously described.” for “expanded.”
Cell lysates were analyzed by western blot as previously described. […]
as §4

## COc1ccc(CC(=O)NCCCCCCNC(C)=O)cc1 [Compound 4a1]
[1]
  Expression of proteins directly regulated by HEXIM1: regulated expression of proteins
[2]
  p21 expression: induced p21 expression
[3]
  Sensitivity of TOTR cells to trans-hydroxytamoxifen: enhanced the sensitivity
[4]
  Recruitment of CDK9 to HEXIM1 gene: induce recruitment of CDK9
[5]
  Recruitment of CDK9 to HEXIM1 gene: induce recruitment of CDK9
[6]
  HEXIM1 expression: induced HEXIM1 expression
